These results are taken from US12410179B2, “Modulators of TNF alpha activity and uses thereof” (RayThera, Inc., priority 2023, dated 2025).

pIC50: −log10 of the molar value. Like-named read-outs stand apart in the source and are kept apart here.

In this assay the target is TNFα (Homo sapiens, UniProt P01375). In words: HEK-Blue hTNFα reporter assay. The format is cell-based. Also noted: purchased R&D biosystem (R&D Systems) 210-TA-020/CF. The conditions noted are these: HEK-Blue hTNFα reporter cells; for Emax: read-out: TNFα reporter, Emax. The text has this: Stimulation of HEK293 cells by TNFα leads to activation of the NF-κB pathway. The potency of compounds was examined in HEK-Blue™ hTNFα reporter cells (Invivogen, Cat #hkb-tnfdmyd). HEK-Blue™ TNFα cells were generated by stable transfection of HEK293 cell line with a SEAP reporter gene under the control of the […] minimal promoter fused to NF-κB binding sites. Stimulation of HEK-Blue™ TNFα cells with TNFα triggers the activation of the NF-κB-inducible promoter and the production of SEAP. Levels of SEAP in the supernatant can be easily determined using QUANTI-Blue™ Solution (Invivogen, cat #rep-qbs) by reading the OD at 620-655 nm.
Chain of TNFα (P01375 77-233 limits assumed): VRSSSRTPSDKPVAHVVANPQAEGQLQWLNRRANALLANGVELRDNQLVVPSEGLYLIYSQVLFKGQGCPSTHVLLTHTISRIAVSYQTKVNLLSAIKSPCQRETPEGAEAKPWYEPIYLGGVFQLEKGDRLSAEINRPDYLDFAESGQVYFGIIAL
HEK-Blue™ TNFα cells were cultured in DMEM supplemented with 10% FBS, 100p/mL penicillin, 100 μg/mL streptomycin, 100 μg/mL normocin, 1 μg/mL puromycin, and 100 μg/mL zeocin. The culture was maintained in culture incubator with 5% CO2 at 37° C. When used for assay, the cells were gently rinsed twice with pre-warmed phosphate buffered saline (PBS) and detached in presence of PBS by tapping the flask or by using a cell scraper. The cells were spun to remove PBS and resuspended in fresh, pre-warmed test medium (DMEM supplemented with 10% FBS, 100p/mL penicillin, and 100 μg/mL streptomycin). A serial dilution of work solution of tested compound was made in DMSO with 1000× of final concentration, and 40 nL of compound DMSO solution was transferred into 384-well plates (Corning 3764) by Echo, and incubated with 10 μL of recombinant hTNFα (R&D biosystem, Cat #210-TA-020/CF) for 1 h at 37° C. The compound/hTNFα mixture well received 30 μL HEK-Blue™ TNFα cell suspension at 10000 cells/well, and then incubated at 37° C. with 5% CO2 for 24 h. The final concentration of hTNFα is […]. After incubation, 5 μL of induced cell supernatant was transferred to a new 384-well plate well (Coring 3764) to mix with 45 μL of QUANTI-Blue Solution. After 1 h incubation at 37° C., the plate was read using a spectrophotometer at 620 nm.
The percentage of inhibition was calculated by the following formula: % inhibition=(positive control−Sample)/(positive control−negative control)*100 • Positive control: OD620 reading of cells with hTNFα stimulation. • Negative control: OD620 reading of cells without hTNFα stimulation. • Sample: OD620 reading of cells with compound at specific concentration and hTNFα stimulation
The % inhibition was plotted against compound concentration in logarithmic scale and the IC50 was rendered using 4-parameter nonlinear regression (GraphPad Prism).
For orientation: Reporter assays use an easily measured gene product as a stand-in for the process of interest.

Setting [1] is: SEAP readout, read-out: IC50 Range.

Broadly, the pIC50 is the IC50 on a negative log10 scale, so that one unit is a factor of ten. Take `CN1C(=O)c2cccc(OC(F)F)c2[C@H]2C[C@@H]1c1nn3ccc(-c4ccc(P(C)(C)=O)nc4)nc3c12` [Example 13, (7R,14S)-1-(difluoromethoxy)-12-(6-(dimethylphosphoryl)pyridin-3-yl)-6-methyl-6,7-dihydro-7,14-methanobenzo[c]pyrimido[1′,2′:1,5]pyrazolo[4,3-f]azocin-5 (14H)-one]: the pIC50 under setting [1] was more than 7.60.
The same measure, in the same setting: with `CN1C(=O)c2cccc(OC(F)F)c2C2CC1c1nn3ccc(-c4cnc(C5(N)CCC5)nc4)cc3c12` (stereo not drawn) [Example 14, 12-(2-(1-aminocyclobutyl)pyrimidin-5-yl)-1-(difluoromethoxy)-6-methyl-6,7-dihydro-7,14-methanobenzo[c]pyrido[1′,2′:1,5]pyrazolo[4,3-f]azocin-5 (14H)-one] the figure was more than 7.60; with `CN1C(=O)c2cccc(OC(F)F)c2[C@H]2C[C@@H]1c1nn3ccc(-c4cnc([C@]5(O)C[C@@](C)(O)C5)nc4)nc3c12` [Example 16], more than 7.60.
Regarding `CN1C(=O)c2cccc(OC(F)F)c2[C@H]2C[C@@H]1c1nn3ccc(-c4cnc(C5(N)CC5)nc4)cc3c12` [Example 17], the pIC50 under setting [1] is more than 7.60.
In the case of `CN1C(=O)c2cccc(OC(F)F)c2[C@H]2C[C@@H]1c1nn3ccc(-c4cnc([C@]5(O)C[C@@](C)(C#N)C5)nc4)cc3c12` [Example 18], under setting [1], the pIC50 was more than 7.60.
Consider `CN1C(=O)c2cccc(OC(F)F)c2[C@H]2C[C@@H]1c1nn3ccc(-c4cnc(C(C)(C)O)nc4)cc3c12` [Example 19], for which the pIC50 under setting [1] was more than 7.60.
Consider `CN1C(=O)c2cccc(OC(F)F)c2[C@H]2C[C@@H]1c1nn3ccc(-c4cnc(P(C)(C)=O)c(F)c4)cc3c12` [Example 21], for which the negative logarithm of the IC50 (pIC50) under setting [1] is more than 7.60.
For `CN1C(=O)c2cccc(OC(F)F)c2[C@H]2C[C@@H]1c1nn3cc(F)c(-c4cnc(C5(N)CCC5)nc4)nc3c12` [Example 23], the pIC50 under setting [1] was more than 7.60.
The term Emax denotes the maximal effect, on the per cent scale that the assay sets. Regarding `CN1C(=O)c2cccc(OC(F)F)c2[C@H]2C[C@@H]1c1nn3ccc(-c4cnc([C@]5(O)C[C@@](C)(O)C5)nc4)cc3c12` [Example 24], the Emax is 91%. For the same molecule, the pIC50 under setting [1] is more than 7.60. Moreover, for the setting “read-out: TNFα reporter, IC50”, the negative-log IC50 (pIC50) is 8.64.
For the molecule `CN1C(=O)c2cccc(OC(F)F)c2[C@H]2C[C@@H]1c1nn3cc(F)c(-c4ccc(P(C)(C)=O)nc4)nc3c12` [Example 25], the pIC50 under setting [1] was more than 7.60.
Consider `CN1C(=O)c2cccc(OC(F)F)c2[C@H]2C[C@@H]1c1nn3cc(F)c(-c4cnc([C@]5(O)C[C@@](C)(O)C5)nc4)nc3c12` [Example 26], for which the pIC50 under setting [1] is more than 7.60.
Still for that read-out and setting: with `CN1C(=O)c2cccc(OC(F)F)c2[C@H]2C[C@@H]1c1nn3cc(F)c(-c4cnc([C@]5(N)C[C@@](C)(O)C5)nc4)nc3c12` [Example 27] the figure was more than 7.60.
In the case of `CN1C(=O)c2cccc(OC(F)F)c2[C@H]2C[C@@H]1c1nn3ccc(-c4cnc([C@]5(N)C[C@@](C)(O)C5)nc4)cc3c12` [Example 28], the pIC50 under setting [1] is more than 7.60.
As for `CN1C(=O)c2cccc(OC(F)F)c2[C@H]2C[C@@H]1c1nn3cc(F)c(-c4ccc(P(C)(C)=O)nc4)cc3c12` [Example 29], the pIC50 under setting [1] was more than 7.60.
The same measure, in the same setting: with `CN1C(=O)c2cccc(OC(F)F)c2[C@H]2C[C@@H]1c1nn3cnc(-c4ccc(P(C)(C)=O)nc4)cc3c12` [Example 30] the figure was more than 7.60; with `[2H]C([2H])([2H])N1C(=O)c2cccc(OC(F)F)c2[C@H]2C[C@@H]1c1nn3ccc(-c4ccc(P(C)(C)=O)nc4)cc3c12` [Example 31], more than 7.60.
Turning to `CN1C(=O)c2cccc(OC(F)F)c2[C@H]2C[C@@H]1c1nn3cnc(-c4cnc([C@]5(O)C[C@@](C)(O)C5)nc4)cc3c12` [Example 32], the negative-log IC50 (pIC50) under setting [1] is more than 7.60.
Regarding `[2H]C([2H])([2H])N1C(=O)c2cccc(OC(F)F)c2[C@H]2C[C@@H]1c1nn3ccc(-c4cnc([C@]5(O)C[C@@](C)(O)C5)nc4)cc3c12` [Example 33], under setting [1], the pIC50 is more than 7.60.
Same read-out and setting: with `CN1C(=O)c2ccc(F)c(OC(F)F)c2[C@H]2C[C@@H]1c1nn3ccc(-c4ccc(P(C)(C)=O)nc4)cc3c12` [Example 34] the figure was more than 7.60.
On the same count and under the same terms, as for `CN1C(=O)c2cc(F)cc(OC(F)F)c2[C@H]2C[C@@H]1c1nn3ccc(-c4ccc(P(C)(C)=O)nc4)cc3c12` [Example 35], the figure is more than 7.60.
As for `CN1C(=O)c2cccc(OC(F)F)c2[C@H]2C[C@@H]1c1nn3cc(F)c(-c4cnc([C@]5(N)C[C@@](C)(O)C5)nc4)cc3c12` [Example 36], under setting [1], the negative-log IC50 (pIC50) is more than 7.60.
Regarding `CN1C(=O)c2cccc(OC3CC3)c2[C@H]2C[C@@H]1c1nn3ccc(-c4cnc([C@]5(O)C[C@@](C)(O)C5)nc4)cc3c12` [Example 37], under setting [1], the pIC50 was more than 7.60.
Consider `C[C@]1(O)C[C@](O)(c2ncc(-c3ccn4nc5c(c4c3)[C@@H]3C[C@H]5NC(=O)c4cccc(OC(F)F)c43)cn2)C1` [Example 38], for which the pIC50 under setting [1] is more than 7.60.
Turning to `CN1C(=O)c2cccc(OC(F)F)c2[C@H]2C[C@@H]1c1nn3cc(F)c(-c4cnc(P(C)(C)=O)c(F)c4)cc3c12` [Example 39], the pIC50 under setting [1] was more than 7.60.
`CN1C(=O)c2cccc(OC(F)F)c2[C@H]2C[C@@H]1c1nn3ccc(-c4cnc([C@]5(N)C[C@@](C)(O)C5)c(F)c4)cc3c12` [Example 40]: the pIC50 under setting [1] is more than 7.60.
As for `CN1C(=O)c2cccc(OC(F)F)c2[C@H]2C[C@@H]1c1nn3cc(F)c(-c4cnc(C5(N)CCC5)nc4)cc3c12` [Example 41], under setting [1], the pIC50 is more than 7.60.
Consider `CN1C(=O)c2cccc(OC(F)F)c2[C@H]2C[C@@H]1c1nn3ccc(-c4cnc([C@]5(O)C[C@@](C)(O)C5)cn4)cc3c12` [Example 42], for which the pIC50 under setting [1] is more than 7.60.
In the case of `CN1C(=O)c2cccc(OC(F)F)c2[C@H]2C[C@@H]1c1nn3cc(F)c(-c4cnc([C@]5(O)C[C@@](C)(O)C5)cn4)cc3c12` [Example 43], the negative logarithm of the IC50 (pIC50) under setting [1] was more than 7.60.
Take `CN1C(=O)c2cccc(OC(F)F)c2[C@H]2C[C@@H]1c1nn3cnc(-c4cnc([C@]5(O)C[C@@](C)(C#N)C5)nc4)cc3c12` [Example 45]: the pIC50 under setting [1] is more than 7.60.
Regarding `CN1C(=O)c2cccc(OC(F)F)c2[C@H]2C[C@@H]1c1nn3cnc(-c4cnc([C@]5(N)C[C@@](C)(O)C5)nc4)cc3c12` [Example 46], under setting [1], the pIC50 was more than 7.60.
`CN1C(=O)c2cccc(OC(F)F)c2[C@H]2C[C@@H]1c1nn3cnc(-c4cnc([C@]5(N)C[C@@](C)(O)C5)c(F)c4)cc3c12` [Example 47]: the maximal response (Emax) was determined as 94%. Besides, under setting [1], the pIC50 was more than 7.60. Under “read-out: TNFα reporter, IC50”, the pIC50 was 8.44.
For `CN1C(=O)c2cccc(OC(F)F)c2[C@H]2C[C@@H]1c1nn3cnc(-c4cnc(C5(N)CCC5)nc4)cc3c12` [Example 48], the pIC50 under setting [1] is more than 7.60.
Take `CN1C(=O)c2cccc(OC(F)F)c2[C@H]2C[C@@H]1c1nn3ccc(-c4cnc(C5(N)COC5)nc4)cc3c12` [Example 49]: the pIC50 under setting [1] is more than 7.60.
Still for that read-out and setting: as for `CN1C(=O)c2cccc(OC(F)F)c2[C@H]2C[C@@H]1c1nn3cc(F)c(-c4cnc([C@]5(N)C[C@@](C)(O)C5)c(F)c4)nc3c12` [Example 50], the figure is more than 7.60; as for `CN1C(=O)c2cccc(OC(F)F)c2[C@H]2C[C@@H]1c1nn3cc(F)c(-c4cnc([C@]5(N)C[C@@](C)(C#N)C5)nc4)nc3c12` [Example 51], more than 7.60.
For the molecule `[2H]C([2H])([2H])N1C(=O)c2cccc(OC(F)F)c2[C@H]2C[C@@H]1c1nn3ccc(-c4cnc(C5(N)CCC5)nc4)nc3c12` [Example 52], under setting [1], the pIC50 was more than 7.60.
Still for that read-out and setting: with `CN1C(=O)c2cccc(C#N)c2[C@H]2C[C@@H]1c1nn3ccc(-c4cnc(C5(N)CCC5)nc4)cc3c12` [Example 54] the figure was more than 7.60; with `[2H]C([2H])([2H])N1C(=O)c2cccc(OC(F)F)c2[C@H]2C[C@@H]1c1nn3ccc(-c4cnc([C@]5(N)C[C@@](C)(C#N)C5)nc4)cc3c12` [Example 55], more than 7.60.
In the case of `[2H]C([2H])([2H])N1C(=O)c2cccc(OC(F)F)c2[C@H]2C[C@@H]1c1nn3ccc(-c4cnc([C@]5(N)C[C@@](C)(C#N)C5)nc4)nc3c12` [Example 56], the pIC50 under setting [1] is more than 7.60.
Same read-out and setting: with `[2H]C([2H])([2H])N1C(=O)c2cccc(OC(F)F)c2[C@H]2C[C@@H]1c1nn3cc(F)c(-c4cnc([C@]5(N)C[C@@](C)(O)C5)nc4)nc3c12` [Example 57] the figure was more than 7.60; with `C[C@]1(C#N)C[C@](N)(c2ncc(-c3cc4c5c(nn4cc3F)[C@H]3C[C@@H]5c4c(OC(F)F)cccc4C(=O)N3)cc2F)C1` [Example 58], more than 7.60.
